Laboratory results: patent US20140045890A1, “NOVEL COMPOUNDS” (SYNGENTA PARTICIPATIONS AG, priority 2011, published 2014)
Several values for one entry are separate records, joined by “and”; a condition that tells them apart may be missing. Identical values can stand only once.

Experiments:
[1] = system: Blumeria qraminis f. sp. tritici (Erysiphe qraminis f. sp. tritici); test: Blumeria graminis f. sp. tritici / wheat / leaf disc preventative (powdery mildew on wheat); type: in vivo; conditions: foliar, wheat leaf segments cv. Kanzler, inoculated 1 day after application, assessed 6-8 days after application, read-out: inhibit fungal infestation (percent disease control compared to untreated)
Pythium ultimum = Pythium ultimum / liquid culture (seedling damping off); type: cell-based; conditions: Globisporangium ultimum, liquid culture in PDB, 24° C., 2-3 days after application, read-out: inhibit fungal infestation (inhibition of growth determined photometrically)
Phytophthora infestans = test: whole plant or invertebrate; type: in vivo; conditions: in Solanum lycopersicum, foliar, read-out: inhibit fungal infestation (percent disease control compared to untreated)
[2] = system: Phaeosphaeria nodorum (Septoria nodorum); test: Phaeosphaeria nodorum (Septoria nodorum) / wheat / leaf disc preventative (glume blotch); type: in vivo; conditions: Parastagonospora nodorum, foliar, wheat leaf segments cv. Kanzler, inoculated 2 days after application, assessed 5-7 days after application, read-out: inhibit fungal infestation (percent disease control compared to untreated)
Plasmopara viticola = Plasmopara viticola / grape / leaf disc preventative; type: in vivo; conditions: foliar, grape vine leaf disks, inoculated 1 day after application, assessed 6-8 days after application, read-out: inhibit fungal infestation (percent disease control compared to untreated)

Row | Compound | melting point | inhibition at 200 ppm [1] [%] | inhibition at 200 ppm (Pythium ultimum) [%] | inhibition at 200 ppm (Phytophthora infestans) [%] | inhibition at 200 ppm [2] [%] | inhibition at 200 ppm (Plasmopara viticola) [%]
1 | CSC(Oc1cc(Cl)c2ncc(Br)cc2c1)C(=O)NCc1ccno1 (centres unmarked) [Compound 1] | 143 °C | ≥ 80 | – | – | – | –
2 | CSC(Oc1ccc2ncc(I)cc2c1)C(=O)NCc1ccno1 (centres unmarked) [Compound 2] | 153 °C | ≥ 80 | ≥ 80 | – | – | –
3 | CSC(Oc1ccc2ncc(Br)cc2c1)C(=O)NCc1ccno1 (centres unmarked) [Compound 3] | 140 °C | ≥ 80 | ≥ 80 | – | – | –
4 | C#Cc1cnc2ccc(OC(SC)C(=O)NCc3ccno3)cc2c1 (centres unmarked) [Compound 4] | 115 °C | ≥ 80 | ≥ 80 | ≥ 80 | – | –
5 | CSC(Oc1ccc2ncc(Br)cc2c1)C(=O)NCc1ccccn1 (centres unmarked) [Compound 5] | 104 °C | – | ≥ 80 | – | – | –
6 | CSC(Oc1ccc2ncc(I)cc2c1)C(=O)NCc1ccccn1 (centres unmarked) [Compound 6] | 109 °C | ≥ 80 | ≥ 80 | – | – | –
7 | C#Cc1cnc2c(C)cc(OC(SC)C(=O)NC(C)(C)c3ccccn3)cc2c1 (centres unmarked) [Compound 7] | 113 °C | ≥ 80 | ≥ 80 | ≥ 80 | ≥ 80 | ≥ 80
8 | C#Cc1cnc2c(C)cc(OC(SC)C(=O)NC(C)(C)c3cccc(C)n3)cc2c1 (centres unmarked) [Compound 16] | 123 °C | ≥ 80 | ≥ 80 | – | – | ≥ 80
9 | C#Cc1cnc2c(C)cc(OC(SC)C(=O)NC(C)(C)c3cc(C)ccn3)cc2c1 (centres unmarked) [Compound 17] | 82 °C | ≥ 80 | ≥ 80 | – | – | ≥ 80
10 | C#Cc1cnc2ccc(OC(SC)C(=O)NC(C)(C)c3ncc(Cl)s3)cc2c1 (centres unmarked) [Compound 19] | 125 °C | ≥ 80 | ≥ 80 | – | – | ≥ 80
11 | C#Cc1cnc2c(F)cc(OC(SC)C(=O)NC(C)(C)c3cc(CC)on3)cc2c1 (centres unmarked) [Compound 21] | 133 °C | ≥ 80 | ≥ 80 | ≥ 80 | – | ≥ 80
12 | C#Cc1cnc2c(Cl)cc(OC(SC)C(=O)NC(C)(C)c3cc(CC)on3)cc2c1 (centres unmarked) [Compound 22] | 157 °C | ≥ 80 | ≥ 80 | ≥ 80 | – | ≥ 80
13 | CCc1cc(C(C)(C)NC(=O)C(Oc2ccc3ncc(I)cc3c2)SC)no1 (centres unmarked) [Compound 23] | 125 °C | ≥ 80 | ≥ 80 | ≥ 80 | – | ≥ 80
14 | C#Cc1cnc2ccc(OC(SC)C(=O)NCc3ccccn3)cc2c1 (centres unmarked) [Compound 25] | 133 °C | ≥ 80 | ≥ 80 | ≥ 80 | – | –
15 | C#Cc1cnc2c(C)cc(OC(SC)C(=O)NC(C)(C)c3ccc(Cl)nc3)cc2c1 (centres unmarked) [Compound 26] | 120 °C | ≥ 80 | ≥ 80 | – | – | ≥ 80
16 | C#Cc1cnc2ccc(OC(SC)C(=O)NC(C)(C)c3ccc(Cl)nc3)cc2c1 (centres unmarked) [Compound 27] | 114 °C | – | ≥ 80 | – | – | –
17 | C#Cc1cnc2ccc(OC(SC)C(=O)NC(C)(C)c3nc(C)cs3)cc2c1 (centres unmarked) [Compound 28] | 97 to 99 °C and 97 °C | ≥ 80 | ≥ 80 | ≥ 80 | – | ≥ 80
18 | C#Cc1cnc2ccc(OC(SC)C(=O)NCc3nccs3)cc2c1 (centres unmarked) [Compound 29] | 178 °C | ≥ 80 | ≥ 80 | – | – | ≥ 80
19 | C#Cc1cnc2ccc(OC(SC)C(=O)NCc3nc(C)cs3)cc2c1 (centres unmarked) [Compound 30] | 115 °C | ≥ 80 | ≥ 80 | ≥ 80 | – | ≥ 80
20 | C#Cc1cnc2ccc(OC(SC)C(=O)NCc3nc(C)c(C)s3)cc2c1 (centres unmarked) [Compound 31] | 126 °C | ≥ 80 | ≥ 80 | ≥ 80 | – | –
21 | C#Cc1cnc2ccc(OC(SC)C(=O)NC(C)(C)c3ccccn3)cc2c1 (centres unmarked) [Compound 33] | – | ≥ 80 | ≥ 80 | ≥ 80 | ≥ 80 | ≥ 80
